What was measured:
EGFR = EGFR (Homo sapiens, UniProt P00533); experiment: Z`-LYTE kinase inhibitory assay, EGFR
recombinant human TOP1 = molecular target: T1, recombinant human TOP1 (Homo sapiens, UniProt P11387); experiment: Topoisomerase I-mediated DNA cleavage assay; details: tested at 0.1, 1, 10, 100 µM
T1 sequence (P11387 1-765): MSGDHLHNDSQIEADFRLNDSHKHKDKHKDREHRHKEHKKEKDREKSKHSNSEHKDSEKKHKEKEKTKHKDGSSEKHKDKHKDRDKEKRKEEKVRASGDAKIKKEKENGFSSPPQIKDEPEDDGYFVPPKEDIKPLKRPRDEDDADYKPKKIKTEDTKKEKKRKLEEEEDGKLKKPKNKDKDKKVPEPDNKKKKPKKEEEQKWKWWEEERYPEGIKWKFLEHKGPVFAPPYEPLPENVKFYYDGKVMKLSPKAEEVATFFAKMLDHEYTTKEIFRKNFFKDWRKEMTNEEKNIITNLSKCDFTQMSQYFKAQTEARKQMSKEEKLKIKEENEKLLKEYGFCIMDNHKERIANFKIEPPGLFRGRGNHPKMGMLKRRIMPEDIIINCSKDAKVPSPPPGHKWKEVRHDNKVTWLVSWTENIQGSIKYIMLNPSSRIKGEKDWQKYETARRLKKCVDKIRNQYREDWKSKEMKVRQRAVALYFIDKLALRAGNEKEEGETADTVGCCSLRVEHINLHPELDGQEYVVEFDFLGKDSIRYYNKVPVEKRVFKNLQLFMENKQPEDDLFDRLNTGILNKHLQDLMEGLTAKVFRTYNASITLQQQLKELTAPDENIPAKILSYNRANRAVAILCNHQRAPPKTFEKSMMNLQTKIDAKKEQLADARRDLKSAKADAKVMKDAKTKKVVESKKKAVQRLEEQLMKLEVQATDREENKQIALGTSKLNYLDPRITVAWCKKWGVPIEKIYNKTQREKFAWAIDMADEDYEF

[1] = tested on: MCF-7 breast cancer cell line; experiment: MTT antiproliferative assay, MCF-7; assay type: cell-based; details: 10 µM, 24 h
Protocol: (§1) At least, three independent experiments were performed.

[2] = tested on: DLD-1 colorectal cancer cell line; experiment: MTT antiproliferative assay, DLD-1; details: for GI% DLD1: 10 µM, 24 h, MTT; for IC50: Homo sapiens, DLD-1, 24 h, read-out: IC50 DLD1 (half maximal growth inhibitory concentration)
Protocol: (§2) After the incubation of the tested compounds for 24 h, the percent growth inhibition (GI%) was calculated.
(§3) Cells were seeded at 1 × 10^4 cells/well and cultured overnight in a 96-well plate. […] Then, 150 µl DMSO was used to solubilise MTT formazan crystals. Finally, the plates were shaken, and the optical density was determined at 570 nm using ELISA plate reader. At least, three independent experiments were performed. Percentage of growth inhibition was determined as (1-[OD of treated cells/OD of control cells]). […] The IC50 values were calculated using Prism v0.8 software (GraphPad Software Inc., La Jolla, CA).

[3] = tested on: HCT-116 colorectal cancer cell line; experiment: MTT antiproliferative assay, HCT-116; details: for GI% HCT-116: 10 µM, 24 h, MTT; for IC50: Homo sapiens, HCT-116, 24 h, read-out: IC50 HCT-116 (half maximal growth inhibitory concentration)
Protocol: as §2, §3

c-Src = molecular target: T2, c-Src (Homo sapiens, UniProt P12931); experiment: Z`-LYTE kinase profiling, c-Src; assay type: biochemical
T2 construct: purchased Invitrogen/Life Technologies
T2 sequence (P12931 whole entry): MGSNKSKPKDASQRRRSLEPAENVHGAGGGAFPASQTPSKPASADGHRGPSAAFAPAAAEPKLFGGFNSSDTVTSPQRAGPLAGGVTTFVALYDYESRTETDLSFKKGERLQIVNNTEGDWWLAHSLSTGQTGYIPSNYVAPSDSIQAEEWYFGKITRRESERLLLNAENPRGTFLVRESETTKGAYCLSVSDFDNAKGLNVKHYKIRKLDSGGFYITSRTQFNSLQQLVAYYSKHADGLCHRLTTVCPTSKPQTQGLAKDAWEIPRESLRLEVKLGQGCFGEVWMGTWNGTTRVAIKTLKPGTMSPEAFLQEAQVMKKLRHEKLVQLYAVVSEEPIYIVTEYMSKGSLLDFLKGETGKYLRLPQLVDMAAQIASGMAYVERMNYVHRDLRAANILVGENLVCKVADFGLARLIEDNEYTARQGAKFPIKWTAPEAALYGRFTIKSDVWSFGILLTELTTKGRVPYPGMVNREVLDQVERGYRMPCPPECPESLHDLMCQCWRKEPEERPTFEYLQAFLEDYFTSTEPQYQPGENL

[4] = tested on: HeLa cervical cancer cell line; experiment: MTT antiproliferative assay, HeLa; assay type: cell-based; details: 10 µM, 24 h
Protocol: as §1

[5] = tested on: MDMBA-231 breast cancer cell line; experiment: MTT antiproliferative assay, MDMBA-231; assay type: cell-based; details: 10 µM, 24 h
Protocol: as §1

IGF-1R = molecular target: T3, IGF-1R (Homo sapiens, UniProt P08069); experiment: Z`-LYTE kinase profiling, IGF-1R; assay type: biochemical
T3 construct: purchased Invitrogen/Life Technologies

BTK = molecular target: T4, BTK (Homo sapiens, UniProt Q06187); experiment: Z`-LYTE kinase profiling, BTK; assay type: biochemical
T4 construct: purchased Invitrogen/Life Technologies

FAK = FAK (Homo sapiens, UniProt Q05397); experiment: Z`-LYTE kinase inhibitory assay, FAK
Sequence of FAK (Q05397 whole entry): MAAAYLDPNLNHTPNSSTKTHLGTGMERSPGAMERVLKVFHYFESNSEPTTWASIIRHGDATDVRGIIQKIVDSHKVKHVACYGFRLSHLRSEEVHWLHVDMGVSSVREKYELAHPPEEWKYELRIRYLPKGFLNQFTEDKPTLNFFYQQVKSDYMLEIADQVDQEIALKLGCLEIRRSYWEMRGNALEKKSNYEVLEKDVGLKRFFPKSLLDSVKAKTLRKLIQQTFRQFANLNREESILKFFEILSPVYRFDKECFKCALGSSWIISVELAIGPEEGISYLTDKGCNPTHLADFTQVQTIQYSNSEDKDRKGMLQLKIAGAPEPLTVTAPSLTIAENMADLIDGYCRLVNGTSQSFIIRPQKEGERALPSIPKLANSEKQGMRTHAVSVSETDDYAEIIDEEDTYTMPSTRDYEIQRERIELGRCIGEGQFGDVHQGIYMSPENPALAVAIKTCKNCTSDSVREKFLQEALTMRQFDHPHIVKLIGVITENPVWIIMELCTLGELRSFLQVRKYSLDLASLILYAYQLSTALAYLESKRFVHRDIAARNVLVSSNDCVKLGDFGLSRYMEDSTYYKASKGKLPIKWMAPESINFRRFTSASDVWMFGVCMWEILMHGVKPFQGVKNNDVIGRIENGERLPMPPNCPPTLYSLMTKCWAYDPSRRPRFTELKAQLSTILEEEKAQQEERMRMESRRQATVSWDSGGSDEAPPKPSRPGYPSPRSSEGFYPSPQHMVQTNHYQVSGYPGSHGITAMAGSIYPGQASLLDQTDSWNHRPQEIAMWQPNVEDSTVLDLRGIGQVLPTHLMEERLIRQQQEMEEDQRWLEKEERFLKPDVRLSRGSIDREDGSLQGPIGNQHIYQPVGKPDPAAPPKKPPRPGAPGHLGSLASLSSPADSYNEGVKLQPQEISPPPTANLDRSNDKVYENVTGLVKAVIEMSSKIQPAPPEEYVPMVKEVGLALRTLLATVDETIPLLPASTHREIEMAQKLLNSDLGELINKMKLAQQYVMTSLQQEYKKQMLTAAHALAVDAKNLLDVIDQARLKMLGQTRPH

HER-2 = molecular target: T5, HER-2 (Homo sapiens, UniProt P04626); experiment: Z`-LYTE kinase profiling, HER-2; assay type: biochemical
T5 construct: purchased Invitrogen/Life Technologies
T5 sequence (P04626 23-1255): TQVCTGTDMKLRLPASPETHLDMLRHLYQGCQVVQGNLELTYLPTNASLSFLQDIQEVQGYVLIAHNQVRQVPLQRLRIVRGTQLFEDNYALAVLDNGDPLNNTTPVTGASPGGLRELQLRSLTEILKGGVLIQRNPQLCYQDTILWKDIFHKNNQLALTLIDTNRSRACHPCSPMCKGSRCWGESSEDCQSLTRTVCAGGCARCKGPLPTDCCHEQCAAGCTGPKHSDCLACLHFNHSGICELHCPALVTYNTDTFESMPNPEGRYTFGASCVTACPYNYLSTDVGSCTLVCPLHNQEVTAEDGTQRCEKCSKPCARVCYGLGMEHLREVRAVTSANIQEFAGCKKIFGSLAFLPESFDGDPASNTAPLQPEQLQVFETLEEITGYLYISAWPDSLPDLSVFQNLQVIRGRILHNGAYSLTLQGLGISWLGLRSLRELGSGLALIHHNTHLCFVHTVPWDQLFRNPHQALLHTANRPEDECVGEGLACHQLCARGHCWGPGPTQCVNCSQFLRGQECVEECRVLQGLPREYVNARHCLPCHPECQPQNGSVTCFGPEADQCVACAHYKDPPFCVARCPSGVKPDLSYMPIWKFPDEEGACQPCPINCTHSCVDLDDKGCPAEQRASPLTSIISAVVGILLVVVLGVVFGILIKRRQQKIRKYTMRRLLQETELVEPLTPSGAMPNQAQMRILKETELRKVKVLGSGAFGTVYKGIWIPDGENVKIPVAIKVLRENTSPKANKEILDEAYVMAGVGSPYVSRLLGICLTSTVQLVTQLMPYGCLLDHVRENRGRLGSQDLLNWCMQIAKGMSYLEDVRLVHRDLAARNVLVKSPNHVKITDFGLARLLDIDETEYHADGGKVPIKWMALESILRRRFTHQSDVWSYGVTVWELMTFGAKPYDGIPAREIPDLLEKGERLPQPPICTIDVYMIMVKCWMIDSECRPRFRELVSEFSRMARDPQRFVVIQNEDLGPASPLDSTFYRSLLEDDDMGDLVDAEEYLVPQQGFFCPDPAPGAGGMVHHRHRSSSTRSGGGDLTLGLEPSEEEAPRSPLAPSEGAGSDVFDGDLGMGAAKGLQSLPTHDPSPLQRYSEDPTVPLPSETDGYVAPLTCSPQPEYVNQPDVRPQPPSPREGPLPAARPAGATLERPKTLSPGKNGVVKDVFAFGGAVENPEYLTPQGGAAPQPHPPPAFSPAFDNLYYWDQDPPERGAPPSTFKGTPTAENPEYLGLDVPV

VEGFR-1 = molecular target: T6, VEGFR-1 (Homo sapiens, UniProt P17948); experiment: Z`-LYTE kinase profiling, VEGFR-1; assay type: biochemical
T6 construct: purchased Invitrogen/Life Technologies
T6 sequence (P17948 27-1338): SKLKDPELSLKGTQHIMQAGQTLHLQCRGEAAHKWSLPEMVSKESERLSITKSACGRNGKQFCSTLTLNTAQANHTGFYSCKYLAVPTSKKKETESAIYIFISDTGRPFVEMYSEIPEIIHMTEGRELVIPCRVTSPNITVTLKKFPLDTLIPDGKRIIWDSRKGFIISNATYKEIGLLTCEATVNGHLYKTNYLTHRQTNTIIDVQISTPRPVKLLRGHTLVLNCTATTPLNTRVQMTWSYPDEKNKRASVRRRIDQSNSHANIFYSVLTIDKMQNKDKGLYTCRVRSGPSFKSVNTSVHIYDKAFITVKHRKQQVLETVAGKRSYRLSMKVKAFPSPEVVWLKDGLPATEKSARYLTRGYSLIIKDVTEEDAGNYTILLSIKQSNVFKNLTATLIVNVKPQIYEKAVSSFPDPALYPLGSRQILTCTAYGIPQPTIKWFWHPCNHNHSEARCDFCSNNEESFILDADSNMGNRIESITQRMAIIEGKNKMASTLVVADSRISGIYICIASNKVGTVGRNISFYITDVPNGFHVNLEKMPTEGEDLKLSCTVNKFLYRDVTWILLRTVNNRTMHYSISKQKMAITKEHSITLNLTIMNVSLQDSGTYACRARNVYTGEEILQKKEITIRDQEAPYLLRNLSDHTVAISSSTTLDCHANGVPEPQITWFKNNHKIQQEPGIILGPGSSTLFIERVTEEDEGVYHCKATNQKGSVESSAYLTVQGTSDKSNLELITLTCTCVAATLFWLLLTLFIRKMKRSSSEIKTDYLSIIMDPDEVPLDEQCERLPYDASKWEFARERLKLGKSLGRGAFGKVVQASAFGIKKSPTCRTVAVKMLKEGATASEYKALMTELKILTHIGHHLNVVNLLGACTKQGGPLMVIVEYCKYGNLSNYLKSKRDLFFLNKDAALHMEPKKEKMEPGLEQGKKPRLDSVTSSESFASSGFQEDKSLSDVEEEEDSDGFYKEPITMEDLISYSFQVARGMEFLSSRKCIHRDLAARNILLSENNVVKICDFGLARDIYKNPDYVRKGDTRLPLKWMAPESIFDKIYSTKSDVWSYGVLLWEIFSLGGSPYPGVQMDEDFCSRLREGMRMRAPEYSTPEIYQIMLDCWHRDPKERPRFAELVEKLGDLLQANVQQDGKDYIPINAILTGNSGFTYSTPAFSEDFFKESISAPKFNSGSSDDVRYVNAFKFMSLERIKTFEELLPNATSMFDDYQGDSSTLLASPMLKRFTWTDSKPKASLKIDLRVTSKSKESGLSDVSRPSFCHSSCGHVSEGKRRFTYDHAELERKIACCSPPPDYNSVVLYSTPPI

VEGFR-2 = molecular target: T7, VEGFR-2 (Homo sapiens, UniProt P35968); experiment: Z`-LYTE kinase profiling, VEGFR-2; assay type: biochemical
T7 construct: purchased Invitrogen/Life Technologies

FRK = molecular target: T8, FRK (Homo sapiens, UniProt P42685); experiment: Z`-LYTE kinase profiling, FRK; assay type: biochemical
T8 construct: purchased Invitrogen/Life Technologies
T8 sequence (P42685 whole entry): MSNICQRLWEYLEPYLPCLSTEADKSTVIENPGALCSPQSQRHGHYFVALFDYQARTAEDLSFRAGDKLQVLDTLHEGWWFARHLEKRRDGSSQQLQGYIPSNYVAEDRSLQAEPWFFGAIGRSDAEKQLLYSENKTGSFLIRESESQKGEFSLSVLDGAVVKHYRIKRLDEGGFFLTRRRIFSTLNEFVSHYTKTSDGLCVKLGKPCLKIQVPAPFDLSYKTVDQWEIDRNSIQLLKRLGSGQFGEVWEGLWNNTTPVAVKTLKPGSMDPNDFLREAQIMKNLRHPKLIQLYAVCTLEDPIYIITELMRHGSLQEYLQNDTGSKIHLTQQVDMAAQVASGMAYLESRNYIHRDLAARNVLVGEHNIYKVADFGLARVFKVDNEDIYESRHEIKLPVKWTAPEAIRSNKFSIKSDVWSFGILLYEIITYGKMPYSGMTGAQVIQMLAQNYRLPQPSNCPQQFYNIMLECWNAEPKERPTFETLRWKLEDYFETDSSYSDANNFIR

| IC50 (EGFR) [nM] | TOP1 inhibitory activity (semiquantitative score relative to 1 µM CPT) (recombinant human TOP1) | IC50 [2] [nM] | IC50 [3] [nM] | IC50 (c-Src) [nM] | IC50 (IGF-1R) [nM] | melting point [°C] | IC50 (BTK) [nM] | IC50 (FAK) [nM] | IC50 (HER-2) [nM] | IC50 (VEGFR-1) [nM] | IC50 (VEGFR-2) [nM] | IC50 (FRK) [nM] | fold decreased activity than Gefitinib, EGFR (EGFR; from IC50 values) [fold] | Compound | GI% MCF-7 [1] [%] | GI% DLD1 [2] [%] | GI% HCT-116 [3] [%] | GI% Hela [4] [%] | GI% MDMBA-231 [5] [%] |
| --- | --- | --- | --- | --- | --- | --- | --- | --- | --- | --- | --- | --- | --- | --- | --- | --- | --- | --- | --- |
| 143 ± 2.54 | −/+ (−/+: 0–25% 1 µM CPT) | > 100000 | 65400 ± 4370 | 783 | 1020 | 140 to 142 | 1590 | 214.4 ± 1.09 | 1240 | 95.3 | 268 | 825 |  | COc1cc2nc(-c3ccc(Cl)cc3)cc(OCCCN3CCN(C)CC3)c2cc1OC [6a, 2-(4-chlorophenyl)-6,7-dimethoxy-4–(3-(4-methylpiperazin-1-yl)propoxy)quinoline] | 17.34 | 22.56 | 31.34 | 20.15 | 9.38 |
| 45.3 ± 5.36 | −/+ (−/+: 0–25% 1 µM CPT) | 19400 ± 2150 | 16800 ± 1560 | 2500 | 8060 | 118 to 120 | 8520 | 98.2 ± 4.67 | 123 | 3330 | 6740 | 9150 |  | COc1cc2nc(-c3ccc(Cl)cc3)cc(OCCCNC3CCCCC3)c2cc1OC [6b, N-(3-((2–(4-chlorophenyl)-6,7-dimethoxyquinolin-4-yl)oxy)propyl)cyclohexanamine] | 23.49 | 36.25 | 42.81 | 12.81 | 19.67 |
| 85.7 ± 6.46 | −/+ (−/+: 0–25% 1 µM CPT) | 47000 ± 2460 | 13700 ± 1290 | 1500 | 2030 | 124 to 126 | 2250 | 45.7 ± 3.4 | 1380 | 606 | 405 | 1560 | 2 | COc1cc2nc(-c3ccc(Cl)cc3)cc(OCCCNC3CCN(C)CC3)c2cc1OC [6c, N-(3-((2–(4-chlorophenyl)-6,7-dimethoxyquinolin-4-yl)oxy)propyl)-1-methylpiperidin-4-amine] | 15.76 | 28.22 | 41.36 | 4.96 | 19.38 |
| 46.4 ± 4.09 | −/+ (−/+: 0–25% 1 µM CPT) | 8150 ± 1050 | 4670 ± 850 | 408 | 1590 | 108 to 110 | 1370 | 37 ± 2.34 | 695 | 303 | 492 | 507 |  | COc1cc2nc(-c3ccc(Cl)cc3)cc(OCCCNCC3CCCO3)c2cc1OC (stereo not shown) [6d, 3-((2–(4-chlorophenyl)-6,7-dimethoxyquinolin-4-yl)oxy)-N-((tetrahydrofuran-2-yl)methy-l)propan-1-amine] | 71.97 | 75.64 | 82.61 | 26.98 | 63.39 |
| 157 ± 11.4 | −/+ (−/+: 0–25% 1 µM CPT) | > 100000 | > 100000 | 198 | 2160 | 209 to 211 | 4940 | 211 ± 8.96 | 82.1 | 7330 | 3760 | 9000 |  | COc1cc2nc(-c3ccc(Cl)cc3)cc(OCCCn3ccnc3)c2cc1OC [6e, 4-(3-(1H-imidazol-1-yl)propoxy)-2–(4-chlorophenyl)-6,7-dimethoxyquinoline] | 5.34 | 15.79 | 22.03 | 22.36 | 4.67 |
| 365 ± 14.8 | 0 | 75400 ± 5460 | 46800 ± 3160 | 2760 | 1480 | 131 to 133 | 4760 | 146 ± 10.5 | 455 | 1110 | 997 | 1280 |  | COc1cc2nc(-c3ccc(C(F)(F)F)cc3)cc(OCCCNC3CCCCC3)c2cc1OC [6g, N-(3-((6,7-dimethoxy-2–(4-(trifluoromethyl)phenyl)quinolin-4-yl)oxy)propyl)cyclohexan-amine] | 76.38 | 25.36 | 22.16 | 46.28 | 48.15 |
| 258 ± 11.9 | 0 | > 100000 | > 100000 | 186 | 219 | 217 to 219 | 185 | 186 ± 6.22 | 206 | 769 | 392 | 139 |  | COc1cc2nc(-c3ccc(C(F)(F)F)cc3)cc(OCCCn3ccnc3)c2cc1OC [6j, 4-(3-(1H-imidazol-1-yl)propoxy)-6,7-dimethoxy-2–(4-(trifluoromethyl)phenyl)quinoline] | 14.67 | 6.31 | 2.46 | 5.67 | 8.42 |
| 410 ± 12.7 | 0 | > 100000 | > 100000 | 6450 | 2400 | 128 to 130 | 2760 | 158 ± 8.73 | 1350 | 5040 | 5960 | 3170 |  | COc1cc2nc(-c3ccc(C)cc3)cc(OCCCN3CCN(C)CC3)c2cc1OC [6k, 6,7-dimethoxy-4–(3-(4-methylpiperazin-1-yl)propoxy)-2-(p-tolyl)quinoline] | 17.49 | 18.69 | 22.15 | 11.32 | 8.64 |
| 34.9 ± 3.76 | −/+ (−/+: 0–25% 1 µM CPT) | 6340 ± 520 | 8110 ± 1040 | 1920 | 1820 | 126 to 128 | 1610 | 26.4 ± 2.81 | 756 | 346 | 2400 | 743 |  | COc1cc2nc(-c3ccc(C)cc3)cc(OCCCNC3CCCCC3)c2cc1OC [6l, N-(3-((6,7-dimethoxy-2-(p-tolyl)quinolin-4-yl)oxy)propyl)cyclohexanamine] | 44.71 | 75.34 | 69.15 | 34.29 | 38.36 |
|  |  |  | 6940 ± 1240 |  |  |  |  |  |  |  |  |  |  | COc1cc2ncnc(Nc3ccc(F)c(Cl)c3)c2cc1OCCCN1CCOCC1 [Gefitinib, reference compound] |  |  |  |  |  |
|  |  | 120 ± 50 | 170 ± 40 |  |  |  |  |  |  |  |  |  |  | CNC(=O)c1ccccc1Nc1nc(Nc2ccc(N3CCOCC3)cc2OC)ncc1Cl [TAE226, reference compound] |  |  |  |  |  |

From publication PMC8725837, “2-Arylquinolines as novel anticancer agents with dual EGFR/FAK kinase inhibitory activity: synthesis, biological evaluation, and molecular modelling insights” (Journal of Enzyme Inhibition and Medicinal Chemistry, 2021)
